According to patent publication US20040197268A1, “Method of imaging amyloid deposits using substituted rhodanine derivatives” (priority 1999, published 2004):
Where “and” joins values, the source holds several entries; their conditions need not be identical. Equal entries are not always repeated. Structures can show the parent of a compound that is named as a salt.

How the values were obtained:
Aβ(1-40) [1] = target: T1, Aβ(1-40) (Homo sapiens, UniProt P05067); assay: BASSR (Beta-Amyloid Self-Seeding Radioassay), inhibitors of self-seeded amyloid fibril growth; assay type: biochemical; details: 30 μM soluble Aβ(1-40) + 125I-labeled Aβ(1-40), pH 7.5, 37° C., 3 to 5 hours, filtration
T1 construct: Soluble Aβ(1-40) peptide (Bachem, Torrance, Calif.); purchased Bachem, Torrance, Calif
Description: BASSR (Beta-Amyloid Self-Seeding Radioassay)
(§1) An assay for inhibitors of self-seeded amyloid fibril growth
Assay Buffer—50 mM sodium phosphate, pH 7.5, 100 mM NaCl, 0.02% NaN3, 1 M urea (filter and store at 4° C.)
Soluble Aβ(1-40) peptide (Bachem, Torrance, Calif.)—2.2 mg/mL in deionized H2O (stored in aliquots at −20° C., keep on ice when thawed) will self-seed after 1 week storage. Typically, the solution should be stored until no lag phase is seen in the assay.
^125I-labeled Aβ(1-40)—150K-350K cpm/μL in 100% acetonitrile—0.1% trifluoroacetic acid (TFA)—1% β-mercaptoethanol (aliquots stored at −20° C.). ^125I-labeled Aβ(1-40) can be made in accordance with the procedure set forth by H. Levine, III in Neurobiol. Aging, 16:755 (1995), which is hereby incorporated by reference, or this reagent may be purchased from Amersham, Arlington Heights, Ill.
Final assay conditions: 30 μM soluble Aβ(1-40) in deionized water in assay buffer+20-50K cpm ^125I-labeled Aβ(1-40) per assay. Compound to be tested is dissolved in dimethylsulfoxide (DMSO), typically 5-50 mM stock, such that the final concentration of DMSO is <1% v/v in the assay.
Assay: Reaction mixture for 50 assays (on ice) is comprised of 0.1-0.2 μL of […] ^125I-labeled Aβ(1-40)+1 μL of soluble Aβ(1-40)+13.5 μL assay buffer per assay. The following are the amounts of the components of the reaction mixture sufficient for 50 assay wells.
1) Prepare reaction mixture above by mixing components and storing on ice.
2) Pipet 14.5 μL of reaction mixture into each of 50 wells on a polypropylene U-bottom 96-well microtiter plate on ice (Costar 3794).
(§2) 3) Add 1.7 μL of diluted compound to be tested to each well in a column of eight, including solvent control. Serial 3-fold dilutions from 1 mM (100 μM final) in assay buffer−urea=7 dilutions+zero. Each 96-well plate can therefore accommodate 11 samples+1 Congo Red control (0.039-5 μM final in 2-fold steps).
4) Seal the plate with aluminum film (Beckman 538619) and incubate for 10 minutes on ice.
5) Raise the temperature to 37° C. and incubate for 3 to 5 hours (depending on the lot of the peptide).
6) Remove the aluminum film and add 200 μL/well of ice cold assay buffer with urea, collecting the radiolabeled fibrils by vacuum filtration through 0.2 μm pore size GVWP filters in 96-well plates (Millipore MAGV N22, Bedford, Mass.). Determine the radioactivity of the filters using standard methods well-known to those skilled in the art.

Aβ(1-40) [2] = target: T1, Aβ(1-40); assay: BASST (Beta-Amyloid Self-Seeding, ThioflavinT), inhibitors of self-seeded amyloid fibril growth; assay type: biochemical; details: 30 μM soluble Aβ(1-40), pH 7.5, 37° C., 3 to 5 hours, thioflavin T fluorescence
Description: BASST (Beta-Amyloid Self-Seeding, ThioflavinT)
as §1
Assay Buffer—50 mM sodium phosphate, pH 7.5, 100 mM NaCl, 0.02% NaN3, 1 M urea (filter and store at 4° C.).
Soluble Aβ(1-40)—2.2 mg/mL in deionized H2O (store in aliquots at −20° C., keep on ice when thawed) will self-seed after 1 week storage. Typically, the solution should be stored until no lag phase is seen in the assay.
Final assay conditions: 30 μM soluble Aβ(1-40) in deionized water in assay buffer. Compound to be tested is dissolved in DMSO, typically 5-50 mM stock, such that the final concentration of DMSO is <1% v/v in the assay.
Assay: Reaction mixture for 50 assays (on ice) comprised of 1 μL of soluble Aβ(1-40)+13.5 μL assay buffer per assay. The following are the amounts of the components of the reaction mixture that result in each of the 50 assay wells.
1) Prepare the reaction mix above by mixing the components and storing on ice.
2) Pipet […] of reaction mixture into each of 50 wells of a polystyrene U-bottom 96-well microtiter plate (Corning 25881-96) on ice.
as §2, with “[…]” for “μL”
4) Seal the plate with aluminum film and incubate for 10 minutes on ice.
5) Raise the temperature to 37° C. and incubate for 3 to 5 hours (depends on the lot of the peptide).
6) Remove the aluminum film and add 250 μL/well of 5 μM thioflavin T (ThT) [T-3516, Sigma-Aldrich] in 50 mM glycine-NaOH, pH 8.5. Read fluorescence on a plate reader (ex=440 nm/20 nm; em=485 nm/20 nm) within 5 minutes.

Aβ(1-42) = target: T2, Aβ(1-42) (Homo sapiens, UniProt P05067); assay: BATYM Assay (Aβ(1-42) aggregation, Thioflavin T fluorescence); assay type: biochemical; details: Aβ 1-42 final concentration 100 μM, PBS pH 7.4, 37° C., 1 day, ThT fluorescence
T2 construct: Required Aβ(1-42)(California Peptide) was dried from its hexafluoroisopropanol (HFIP) stock solution; purchased California Peptide
Description: Required Aβ(1-42)(California Peptide) was dried from its hexafluoroisopropanol (HFIP) stock solution. The Aβ(1-42) was dissolved in dimethylsulfoxide (DMSO) and then mixed with phosphate buffered saline, (PBS) (pH 7.4). The mixed Aβ(1-42) solution was filtered with a 0.2 μm Omnipore membrane syringe filter (Millipore, Bedford, Mass.). The compound to be tested in DMSO (50 times concentrate) was put into each well (0.5 μL/well) of a 96-well plate. The Aβ(1-42) solution was added into each well (24.5 μL/well). The plate was centrifuged at 1,000 g for 5 minutes and incubated at 37° C. for 1 day (Aβ 1-42; final concentration 100 μM).
After incubation Thioflavin T (ThT) (30 μM) solution in glycine-NaOH buffer (pH 8.5, 50 mM) was added into each well (250 μL/well), fluorescence was measured (ex. 440/20 nm; em 485/20 nm) using a fluorescence plate reader. The inhibitory activity was calculated as the reduction of fluorescence with the following formula:
inhibition (%)={(F(Aβ)−F(Aβ+compound)}/{F(Aβ)−F(solvent+compound)}×100
The IC50s were calculated by a curve fitting program using the following equation. The data were obtained from two different experiments in triplicate.
x=concentration of tested compound (M),

[3] = target: T3, beta amyloid peptide Aβ(1-40) (Homo sapiens, UniProt P05067); assay: BAPA (Beta-Amyloid Peptide Aggregation), pH 6.0; assay type: biochemical; details: Aβ(1-40) 33 μM, pH 6.0, 2 to 4 hours at room temperature, filtration
T3 construct: 0.5 mg/mL AP (140) peptide in 20% HFIP+0.1 μL/assay radioiodinated ^125I Aβ(1-40)
Description: BAPA (Beta-Amyloid Peptide Aggregation)
This assay is used to provide a measure of inhibition by a compound against the aggregation behavior of the beta amyloid peptide.
The purpose of this assay is to provide a higher volume method of assaying the amount of beta amyloid aggregation using an endpoint assay based on filtration. In this assay, hexafluoroisopropanol (HFIP) is used to break down the initial amyloid peptide to a monomer state and use a concentration of 33 μM which is high enough so that aggregation will occur at pH 6.0 in several hours.
β-Amyloid Peptide Aggregation, pH 6.0 (BAPA)
In a 96-well plate (Costar 3794), we add […] 50 mM Phosphate Buffer, pH 6.0, 10 μL 0.5 mg/mL AP (140) peptide in 20% HFIP+0.1 μL/assay radioiodinated ^125I Aβ(1-40) [^125I Aβ(1-40)], and 1 μL of the compound to be tested starting at 50 mM with a concentration of DMSO <1%. Then, we incubate for 2 to 4 hours at room temperature. We stop the reaction with […] of 50 mM phosphate buffer, pH 6.0, and filter it through a 0.2 μm 96-well filter plate (Millipore MAGU N22). We wash the filter plate with 100 μL of the same phosphate buffer. Aggregation was detected on a Microbeta counter after impregnating the filters with Meltilex (1450-441) and is corrected for background.

T3 sequence (P05067 672-711 limits assumed): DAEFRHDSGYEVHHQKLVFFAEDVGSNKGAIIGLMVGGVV
T1 sequence (P05067 672-711 limits assumed): as above
T2 sequence (P05067 672-713 limits assumed): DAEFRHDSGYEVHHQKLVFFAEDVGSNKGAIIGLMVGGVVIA

| Molecule | melting point | IC50 (Aβ(1-40) [1]) | IC50 (Aβ(1-40) [2]) | IC50 (Aβ(1-42)) | IC50 [3] |
| --- | --- | --- | --- | --- | --- |
| CCCCN(CCCC)c1ccc(/C=C2\SC(=S)N(Cc3nnn[nH]3)C2=O)cc1 [Example 20, (Z) 5-(4-Dibutylamino-benzylidene)-3(H-tetrazol-5-ylmethyl)-2-thioxo-thiazolidin-4-one] | – | – | 2 µM | 2.04 µM | > 100 µM |
| O=C(CN1C(=O)/C(=C/c2ccc(N3CC[C@@H]4CCCC[C@H]4C3)cc2)SC1=S)NS(=O)(=O)c1ccccc1 [Example 24, (Z) N-(2-{5-[(4aS,8aR)-4(Octahydro-isoquinolin-2-yl)benzylidene]-4-oxo-2-thioxo-thiazolidin-3-yl}-acetyl)-benzenesulfonamide] | 222 °C | 6.5 µM and 10 µM and 6 µM | 1 µM and 0.8 µM | 3.84 µM | – |
| CCCCN(CCCC)c1ccc(/C=C2\SC(=S)N(CC(=O)NS(=O)(=O)c3ccc(F)cc3)C2=O)cc1 [Example 25, (Z) N-{2-[5-(4-Dibutylamino-benzylidene)-4-oxo-2-thioxo-thiazolidin-3-yl]-acetyl}-4-fluoro-benzenesulfonamide] | 125 °C | 6 µM | 0.6 µM and 0.5 µM | 2.38 µM | – |
| CCCCN(CCCC)c1ccc(/C=C2\SC(=S)N(CCS(=O)(=O)NC(=O)c3ccc(F)cc3)C2=O)cc1 [Example 26, (Z) 2-[5-(4-Dibutylamino-benzytidene)-4-oxo-2-thioxo-thiazolidin-3-yl]-ethanesulfonic acid 4-fluoro-benzoylamide] | 191 to 192 °C | 6.1 µM and 10 µM | – | 2.14 µM | – |
| O=C1/C(=C/c2ccc(N3CCC4CCCCC4C3)cc2)SC(=S)N1Cc1cc(=O)c(O)co1 (stereo not drawn) [Example 32, (Z) 3-(5-Hydroxy-4-oxo-4H-pyran-2-ylmethyl)-5-[4-(octahydro-isoquinolin-2-yl)benzylidene]-2-thioxo-thiazolidin-4-one] | – | > 100 µM | 1 µM | 2.55 µM | 46 µM |
| CCCC1CCN(c2ccc(/C=C3\SC(=S)N(Cc4nnn[nH]4)C3=O)cc2)CC1 [Example 35] | – | 15 µM | 0.4 µM | 3.31 µM | > 60 µM |
| (Z) 2-[5-(4-Hexyl-methyl-amino-benzylidene)-4-oxo-2-thioxo-thiazolidin-3-yl]-ethanesulfonic acid 4-fluoro-benzoylamide [Example 40] | – | – | – | 2.84 µM | – |

The remaining lines, values ahead:

| melting point | IC50 (Aβ(1-40) [1]) | IC50 (Aβ(1-40) [2]) | IC50 (Aβ(1-42)) | IC50 [3] | Molecule |
| --- | --- | --- | --- | --- | --- |
| > 250 °C | – | – | – | – | CCCCCCN(C)c1ccc(/C=C2\SC(=S)N(CCS(=O)(=O)O)C2=O)cc1 (as salt: sodium) [Example 1, (Z) 2-{5[4-(Hexyl-methyl-amino)benzylidene] 4-oxo-2-thioxo-thiazolidin-3-yl}-ethanesulfonic acid] |
| – | > 100 µM | 1 µM | 1.72 µM | 23 µM | CCCCCCN(C)c1ccc(/C=C2\SC(=S)N(CCS(=O)(=O)O)C2=O)cc1 [Example 1, (Z) 2-{5[4-(Hexyl-methyl-amino)benzylidene] 4-oxo-2-thioxo-thiazolidin-3-yl}-ethanesulfonic acid] |
| 147 to 149 °C | > 100 µM | 0.8 µM | 2.32 µM | 7 µM | CCCCCCN(C)c1ccc(/C=C2\SC(=S)N(CCS(=O)(=O)NC)C2=O)cc1 [Example 2, (Z) 2-{5-[4-(Hexyl-methyl-amino)-benzylidene]-4-oxo-2-thioxo-thiazolidin-3-yl}-ethanesulfonic acid methylamide] |
| – | > 100 µM | 0.22 µM | > 100 µM | 30 µM | CCCCCCN(C)c1ccc(/C=C2\SC(=S)N(CCNC(C)=O)C2=O)cc1 [Example 14] |
| – | > 100 µM | > 100 µM | 3.39 µM | 8 µM | CCCCCCN(C)c1ccc(/C=C2\SC(=S)N(CS(=O)(=O)O)C2=O)cc1 [Example 15, (Z) {5-[4-(n-Hexylmethylamine)-benzylidene]-4-oxo-2-thioxo-thiazolidin-3-yl}-methanesulfonic acid] |
| 219 to 222 °C | > 100 µM | – | 2.91 µM | > 100 µM | CCCCN(CCCC)c1ccc(/C=C2\SC(=S)N(CC(=O)NS(C)(=O)=O)C2=O)cc1 [Example 21, (Z) N-{2-[5-(4-Dibutylamino-benzylidene)-4-oxo-2-thioxo-thiazolidin-3-yl]-acetyl}-methanesulfonamide] |
